Test results: patent US10106501B2, “Nuclear receptor modulators” (AbbVie Inc., priority 2015, dated 2018)
pIC50: −log10 of the molar value.

Target: T1, chimeric human RORγ-Gal4 receptor (Homo sapiens, UniProt P51449)
T1 sequence (P51449 269-508 limits assumed): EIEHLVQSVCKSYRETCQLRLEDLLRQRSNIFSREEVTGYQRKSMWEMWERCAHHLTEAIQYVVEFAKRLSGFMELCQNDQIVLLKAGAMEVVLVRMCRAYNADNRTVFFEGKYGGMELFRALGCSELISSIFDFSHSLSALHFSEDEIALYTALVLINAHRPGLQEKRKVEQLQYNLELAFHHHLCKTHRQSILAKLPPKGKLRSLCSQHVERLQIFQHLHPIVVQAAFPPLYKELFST
Assay: transient transactivation assay (RORγ-Gal4 luciferase reporter)
Type: cell-based
Conditions: Cos-7 cells transfected with RORγ-Gal4 and 5Gal4 pGL3 TK Luc reporter; overnight incubation; T0901317 at 10^-5 M as reference; read-out: IC50

SMILES	pIC50
Cc1cn(Cc2c(Cl)ccc(C(=O)N3CCC(O)CC3)c2Cl)c2c(C)cc(C#N)cc12 [DK, 1-(2,6-dichloro-3-(4-hydroxypiperidine-1-carbonyl)benzyl)-3,7-dimethyl-1H-indole-5-carbonitrile]	6.30 to 7.00
Cc1cn(C(=O)c2c(Cl)ccc(C(=O)N3CCC(O)CC3)c2Cl)c2c(C)cc(C#N)cc12 [DM, 1-(2,6-dichloro-3-(4-hydroxypiperidine-1-carbonyl)benzoyl)-3,7-dimethyl-1H-indole-5-carbonitrile]	6.30 to 7.00
Cc1cc(C(F)(F)F)cc2c(C)n(C(=O)c3c(Cl)ccc(C(=O)N4CCC(CC(=O)O)CC4)c3Cl)nc12 [EB, 2-(1-(2,4-dichloro-3-(3,7-dimethyl-5-(trifluoromethyl)-2H-indazole-2-carbonyl)benzoyl)piperidin-4-yl)acetic acid]	> 7.00
Cc1cc(C(F)(F)F)cc2cnn(Cc3c(Cl)ccc(C(=O)N4CCC(CC(=O)O)CC4)c3Cl)c12 [EC, 2-(1-(2,4-dichloro-3-((7-methyl-5-(trifluoromethyl)-1H-indazol-1-yl)methyl)benzoyl)piperidin-4-yl)acetic acid]	> 7.00
Cc1cc(C(F)(F)F)cc2cn(Cc3c(Cl)ccc(C(=O)N4CCC(CC(=O)O)CC4)c3Cl)nc12 [ED, 2-(1-(2,4-dichloro-3-((7-methyl-5-(trifluoromethyl)-2H-indazol-2-yl)methyl)benzoyl)piperidin-4-yl)acetic acid]	> 7.00
Cc1cc(C(F)(F)F)cc2c1c(Cc1c(Cl)ccc(C(=O)N3CCC(CC(=O)O)CC3)c1Cl)nn2C [EE, 2-(1-(2,4-dichloro-3-((1,4-dimethyl-6-(trifluoromethyl)-1H-indazol-3-yl)methyl)benzoyl)piperidin-4-yl)acetic acid]	> 7.00
Cc1nn(Cc2c(Cl)ccc(C(=O)N3CCC(CC(=O)O)CC3)c2Cl)c2ccc(C(F)(F)F)cc12 [EF, 2-(1-(2,4-dichloro-3-((3-methyl-5-(trifluoromethyl)-1H-indazol-1-yl)methyl)benzoyl)piperidin-4-yl)acetic acid]	> 7.00
Cc1cn(Cc2c(Cl)ccc(C(=O)N3CCC(CC(=O)O)CC3)c2Cl)c2c(C)cc(OC(F)(F)F)cc12 [EG, 2-[1-[2,4-dichloro-3-[[3,7-dimethyl-5-(trifluoromethoxy)-1H-indol-1-yl]methyl]benzoyl]-4-piperidyl]acetic acid]	> 7.00
Cc1cn(Cc2c(Cl)ccc(C(=O)N3CCC(C(=O)O)CC3)c2Cl)c2c(C)cc(OC(F)(F)F)cc12 [EG-1]	> 7.00
Cc1cn(Cc2c(Cl)ccc(C(=O)N3CC[C@@H](C(=O)O)[C@@H](C)C3)c2Cl)c2c(C)cc(OC(F)(F)F)cc12 [EG-2]	> 7.00
Cc1cn(C(=O)c2c(Cl)ccc(C(=O)N3CCC(CC(=O)O)CC3)c2Cl)c2c(C)cc(OC(F)(F)F)cc12 [EH, 2-[1-[2,4-dichloro-3-[3,7-dimethyl-5-(trifluoromethoxy)indole-1-carbonyl]benzoyl]-4-piperidyl]acetic acid]	> 7.00
Cc1cn(C(=O)c2c(Cl)ccc(C(=O)N3CCC(C(=O)O)CC3)c2Cl)c2c(C)cc(OC(F)(F)F)cc12 [EH-1]	6.30 to 7.00
O=C(O)CC1CCN(C(=O)c2ccc(Cl)c(Cn3ccc4cc(OC(F)(F)F)ccc43)c2Cl)CC1 [EI, 2-(1-(2,4-dichloro-3-((5-(trifluoromethoxy)-1H-indol-1-yl)methyl)benzoyl)piperidin-4-yl)acetic acid]	> 7.00
CC(C)c1ccc2c(ccn2Cc2c(Cl)ccc(C(=O)N3CCC(CC(=O)O)CC3)c2Cl)c1 [EI-1]	> 7.00
CSc1ccc2c(ccn2Cc2c(Cl)ccc(C(=O)N3CCC(CC(=O)O)CC3)c2Cl)c1 [EI-2]	> 7.00
O=C(O)CC1CCN(C(=O)c2ccc(Cl)c(Cn3ccc4cccc(Cl)c43)c2Cl)CC1 [EI-3]	> 7.00
O=C(O)CC1CCN(C(=O)c2ccc(Cl)c(Cn3ccc4cc(C(F)(F)F)ccc43)c2Cl)CC1 [EI-4]	> 7.00
O=C(O)CC1CCN(C(=O)c2ccc(Cl)c(Cn3ccc4cc(C(F)(F)F)cc(Cl)c43)c2Cl)CC1 [EI-5]	> 7.00
O=C(O)CC1CCN(C(=O)c2ccc(Cl)c(Cn3ccc4c(C(F)(F)F)cccc43)c2Cl)CC1 [EI-7]	> 7.00
Cc1cc(OC(F)(F)F)cc2ccn(Cc3c(Cl)ccc(C(=O)N4CCC(CCC(=O)O)CC4)c3Cl)c12 [EJ-2]	> 7.00
Cc1ccc(C(=O)N2CCC(CC(=O)O)CC2)c(C)c1Cn1ccc2cc(OC(F)(F)F)cc(C)c21 [EK, 2-(1-(2,4-dimethyl-3-((7-methyl-5-(trifluoromethoxy)-1H-indol-1-yl)methyl)benzoyl)piperidin-4-yl)acetic acid]	> 7.00

Continued, values first:

pIC50	SMILES
> 7.00	Cc1cn(C(=O)c2c(Cl)ccc(C(=O)N3CCC(CC(=O)O)CC3)c2Cl)c2c(C)cc(C(F)(F)F)cc12 [DJ, 2-(1-(2,4-dichloro-3-(3,7-dimethyl-5-(trifluoromethyl)-1H-indole-1-carbonyl)benzoyl)piperidin-4-yl)acetic acid]
> 7.00	Cc1cn(Cc2c(Cl)ccc(C(=O)N3CCC(CC(=O)O)CC3)c2Cl)c2c(C)cc(C#N)cc12 [DL, 2-(1-(2,4-dichloro-3-((5-cyano-3,7-dimethyl-1H-indol-1-yl)methyl)benzoyl)piperidin-4-yl)acetic acid]
> 7.00	Cc1cn(C(=O)c2c(Cl)ccc(C(=O)N3CCC(CC(=O)O)CC3)c2Cl)c2c(C)cc(C#N)cc12 [DN, 2-(1-(2,4-dichloro-3-(5-cyano-3,7-dimethyl-1H-indole-1-carbonyl)benzoyl)piperidin-4-yl)acetic acid]
> 7.00	Cc1cc(C(F)(F)F)nc2c1cc(Cc1c(Cl)ncc(C(=O)N3CCC(O)CC3)c1Cl)n2C [DO, (4,6-dichloro-5-((1,4-dimethyl-6-(trifluoromethyl)-1H-pyrrolo[2,3-b]pyridin-2-yl)methyl)pyridin-3-yl)(4-hydroxypiperidin-1-yl)methanone]
> 7.00	Cc1cc(OC(F)(F)F)cc2c1cc(Cc1c(Cl)ccc(C(=O)N3CCC(CC(=O)O)CC3)c1Cl)n2C [DP, 2-(1-(2,4-dichloro-3-((1,4-dimethyl-6-(trifluoromethoxy)-1H-indol-2-yl)methyl)benzoyl)piperidin-4-yl)acetic acid]
> 7.00	Cc1cc(OC(F)(F)F)cc2c1cc(Cc1c(Cl)ccc(C(=O)N3CCOCC3)c1Cl)n2C [DP-1, (2,4-dichloro-3-((1,4-dimethyl-6-(trifluoromethoxy)-1H-indol-2-yl)methyl)phenyl)(morpholino)methanone]
> 7.00	Cc1cc(OC(F)(F)F)cc2c1cc(Cc1c(Cl)ccc(C(=O)N3CC[C@H](C(=O)O)[C@H](C)C3)c1Cl)n2C [DP-2, (3S,4S)-1-(2,4-dichloro-3-((1,4-dimethyl-6-(trifluoromethoxy)-1H-indol-2-yl)methyl)benzoyl)-3-methylpiperidine-4-carboxylic acid]
> 7.00	Cc1cc(OC(F)(F)F)cc2c1cc(Cc1c(Cl)ccc(C(=O)N3CC[C@@H](C(=O)O)[C@@H](C)C3)c1Cl)n2C [DP-3, (3R,4R)-1-(2,4-dichloro-3-((1,4-dimethyl-6-(trifluoromethoxy)-1H-indol-2-yl)methyl)benzoyl)-3-methylpiperidine-4-carboxylic acid]
> 7.00	Cn1c(Cc2c(Cl)ccc(C(=O)N3CCOCC3)c2Cl)cc2c(Cl)cc(C#N)cc21 [DQ, 4-chloro-2-(2,6-dichloro-3-(morpholine-4-carbonyl)benzyl)-1-methyl-1H-indole-6-carbonitrile]
> 7.00	Cc1cc(OC(F)(F)F)cc2c1c(Cc1c(Cl)ccc(C(=O)N3CCC(CC(=O)O)CC3)c1Cl)cn2C [DU1-1]
> 7.00	Cc1cc(OC(F)(F)F)cc2c1c(Cc1c(Cl)ccc(C(=O)N3CCC(C(=O)O)C(C)C3)c1Cl)cn2C (stereo not drawn) [DU1-2]
> 7.00	Cc1cc(OC(F)(F)F)cc2c1c(Cc1c(Cl)ccc(C(=O)N3CCC(C(=O)O)CC3)c1Cl)cn2C [DU, 1-[2,4-dichloro-3-[[1,4-dimethyl-6-(trifluoromethoxy)-1H-indol-3-yl]methyl]benzoyl]piperidine-4-carboxylic acid]
> 7.00	Cc1cc(C(F)(F)F)cc2c1c(Cc1c(Cl)ncc(C(=O)N3CCC(CC(=O)O)CC3)c1Cl)cn2C [DV, 2-[1-[4,6-dichloro-5-[[1,4-dimethyl-6-(trifluoromethyl)-1H-indol-3-yl]methyl]pyridine-3-carbonyl]-4-piperidyl]acetic acid]
> 7.00	Cc1cc(C(F)(F)F)cc2c1c(Cc1c(Cl)cnc(C(=O)N3CCC(CC(=O)O)CC3)c1Cl)cn2C [DW, 2-[1-[3,5-dichloro-4-[[1,4-dimethyl-6-(trifluoromethyl)-1H-indol-3-yl]methyl]pyridine-2-carbonyl]-4-piperidyl]acetic acid]
> 7.00	Cc1cc(OC(F)(F)F)cc2c1c(Cc1c(Cl)cnc(C(=O)N3CCC(CC(=O)O)CC3)c1Cl)cn2C [DX, 2-[1-[3,5-dichloro-4-[[1,4-dimethyl-6-(trifluoromethoxy)-1H-indol-3-yl]methyl]pyridine-2-carbonyl]-4-piperidyl]acetic acid]
> 7.00	Cc1cc(OC(F)(F)F)cc2c1c(Cc1c(Cl)ncc(C(=O)N3CCC(CC(=O)O)CC3)c1Cl)cn2C [DY, 2-[1-[4,6-dichloro-5-[[1,4-dimethyl-6-(trifluoromethoxy)-1H-indol-3-yl]methyl]pyridine-3-carbonyl]-4-piperidyl]acetic acid]
> 7.00	Cc1cc(C(F)(F)F)cc2occ(Cc3c(Cl)ccc(C(=O)N4CCC(CC(=O)O)CC4)c3Cl)c12 [DZ, 2-(1-(2,4-dichloro-3-((4-methyl-6-(trifluoromethyl)benzofuran-3-yl)methyl)benzoyl)piperidin-4-yl)acetic acid]
> 7.00	Cc1nn(C(=O)c2c(Cl)ccc(C(=O)N3CCC(CC(=O)O)CC3)c2Cl)c2c(C)cc(C(F)(F)F)cc12 [EA, 2-(1-(2,4-dichloro-3-(3,7-dimethyl-5-(trifluoromethyl)-1H-indazole-1-carbonyl)benzoyl)piperidin-4-yl)acetic acid]
